Settings: 303.16 K, Liquid, Vibrating tube method

CCCCCCCCCC [decane]
Settings	mass density [kg/m3]
9263 kPa	729.6
9277 kPa	729.6
9288 kPa	729.7
9302 kPa	729.7
9321 kPa	729.7
9332 kPa	729.7
9348 kPa	729.7
9360 kPa	729.7
9372 kPa	729.7
9392 kPa	729.7
9407 kPa	729.8
9419 kPa	729.8
9433 kPa	729.7
9449 kPa	729.9
9461 kPa	729.8
9473 kPa	729.8
9491 kPa	729.7
9509 kPa	729.9
9521 kPa	729.8
9535 kPa	729.8
9552 kPa	729.9
9566 kPa	729.8
9581 kPa	729.7
9595 kPa	729.9
9608 kPa	729.9
9624 kPa	729.9
9639 kPa	729.8
9655 kPa	729.9
9672 kPa	730
9685 kPa	729.8
9704 kPa	729.9
9725 kPa	730
9738 kPa	730
9754 kPa	730
9767 kPa	730.2
9778 kPa	730
9793 kPa	730.1
9808 kPa	729.9
9820 kPa	730
9831 kPa	730.1
9841 kPa	730.1
9855 kPa	730.1
9870 kPa	730.1
9881 kPa	730.2
9900 kPa	730.1
9913 kPa	730.1
9921 kPa	730.2
9935 kPa	730.2
9946 kPa	730.2
9956 kPa	730.2
9969 kPa	730.2
9979 kPa	730.1
9992 kPa	730.3
10003 kPa	730.3
10021 kPa	730.1
10032 kPa	730.2
10048 kPa	730.2
10090 kPa	730.4
10106 kPa	730.3
10117 kPa	730.4
10132 kPa	730.2
10145 kPa	730.3
10164 kPa	730.3
10176 kPa	730.5
10188 kPa	730.3
10206 kPa	730.3
10221 kPa	730.3
10231 kPa	730.4
10246 kPa	730.4
10276 kPa	730.4
10289 kPa	730.5
10302 kPa	730.4
10318 kPa	730.5
10331 kPa	730.4
10343 kPa	730.5
10358 kPa	730.5
10374 kPa	730.4
10385 kPa	730.4
10401 kPa	730.6
10414 kPa	730.4
10432 kPa	730.6
10446 kPa	730.4
10458 kPa	730.6
10475 kPa	730.6
10487 kPa	730.5
10499 kPa	730.6
10515 kPa	730.7
10527 kPa	730.7
10545 kPa	730.6
10562 kPa	730.7
10574 kPa	730.6
10584 kPa	730.6
10602 kPa	730.7
10616 kPa	730.7
10630 kPa	730.7
10646 kPa	730.7
10659 kPa	730.7
10672 kPa	730.6
10688 kPa	730.8
10707 kPa	730.8
10717 kPa	730.7
10729 kPa	730.8
10748 kPa	730.7
10765 kPa	730.9
10779 kPa	730.7
10791 kPa	730.8
10806 kPa	730.8
10823 kPa	730.8
10836 kPa	730.7
10856 kPa	730.8
10873 kPa	730.9
10886 kPa	731
10904 kPa	731
10917 kPa	731.1
10937 kPa	730.9
10954 kPa	731
10969 kPa	730.8
10986 kPa	731
11001 kPa	730.9
11014 kPa	731
11030 kPa	731.1
11049 kPa	731
11062 kPa	730.9
11082 kPa	731
11102 kPa	731.1
11116 kPa	731.1
11133 kPa	731
11149 kPa	731
11162 kPa	731
11186 kPa	731.1
11200 kPa	731.1
11216 kPa	731.1
11234 kPa	731.2
11257 kPa	731.1
11275 kPa	731.2
11291 kPa	731.2
11312 kPa	731.2
11330 kPa	731.2
11347 kPa	731.2
11365 kPa	731.2
11379 kPa	731.1
11396 kPa	731.2
11417 kPa	731.3
11436 kPa	731.3
11452 kPa	731.4
11469 kPa	731.4
11485 kPa	731.3
11504 kPa	731.4
11519 kPa	731.2
11533 kPa	731.3
11553 kPa	731.3
11570 kPa	731.4
11589 kPa	731.5
11609 kPa	731.2
11623 kPa	731.4
11643 kPa	731.3
11660 kPa	731.4
11677 kPa	731.5
11695 kPa	731.6
11712 kPa	731.6
11732 kPa	731.5
11749 kPa	731.5
11762 kPa	731.6
11782 kPa	731.5
11797 kPa	731.5
11820 kPa	731.6
11843 kPa	731.7
11858 kPa	731.6
11881 kPa	731.7
11901 kPa	731.7
11916 kPa	731.7
11942 kPa	731.6
11962 kPa	731.7
11978 kPa	731.6
11996 kPa	731.6
12012 kPa	731.6
12034 kPa	731.8
12055 kPa	731.8
12070 kPa	731.8
12097 kPa	731.7
12118 kPa	731.7
12135 kPa	731.8
12159 kPa	731.8
12183 kPa	731.9
12196 kPa	731.9
12215 kPa	731.9
12234 kPa	731.7
12254 kPa	731.8
12270 kPa	731.9
12289 kPa	731.9
12305 kPa	732
12321 kPa	732.1
12346 kPa	731.9
12371 kPa	732
12391 kPa	732.1
12410 kPa	732.1
12430 kPa	731.9
12452 kPa	732.1
12470 kPa	732.1
12489 kPa	732.1
12509 kPa	732
12535 kPa	732.1
12555 kPa	732
12575 kPa	732.1
12592 kPa	732.2
12618 kPa	732.2
12635 kPa	732.1
12653 kPa	732.1
12679 kPa	732.2
12702 kPa	732.3
12723 kPa	732.2
12747 kPa	732.3
12767 kPa	732.3
12785 kPa	732.3
12809 kPa	732.2
12833 kPa	732.2
12850 kPa	732.4
12872 kPa	732.4
12896 kPa	732.5
12917 kPa	732.4
12942 kPa	732.3
12960 kPa	732.4
12984 kPa	732.4
13003 kPa	732.3
13025 kPa	732.5
13047 kPa	732.5
13074 kPa	732.6
13102 kPa	732.6
13121 kPa	732.4
13143 kPa	732.6
13165 kPa	732.5
13187 kPa	732.5
13210 kPa	732.5
13232 kPa	732.6
13251 kPa	732.6
13274 kPa	732.8
13296 kPa	732.7
13316 kPa	732.6
13344 kPa	732.6
13373 kPa	732.6
13393 kPa	732.7
13422 kPa	732.8
13451 kPa	732.7
13471 kPa	732.9
13501 kPa	732.8
13528 kPa	732.7
13551 kPa	732.8
13581 kPa	732.8
13605 kPa	732.9
13631 kPa	732.9
13656 kPa	733
13679 kPa	733
13699 kPa	733.1
13723 kPa	732.9
13747 kPa	732.9
13776 kPa	733
13797 kPa	732.9
13819 kPa	733.1
13850 kPa	733
13875 kPa	733.2
13903 kPa	733.1
13931 kPa	733.1
13957 kPa	733.1
13985 kPa	733.2
14017 kPa	733.2
14039 kPa	733.2
14064 kPa	733.2
14097 kPa	733.2
14129 kPa	733.3
14154 kPa	733.3
14184 kPa	733.4
14209 kPa	733.3
14239 kPa	733.4
14262 kPa	733.4

Source: the NIST ThermoML archive (doi:10.1021/je800110r)
